US20050164993A1, “Methods of treating allergic reactions” (priority 2002, published 2005)
Like-named read-outs stand apart in the source and are kept apart here.

Assays:
[1] = system: BALB/c 3T3 (CCL-163) cells; test: 3T3 Neutral Red uptake phototoxicity assay (with/without UVA)
Experimental: Streptomycin sulfate ([…]) and penicillin (100 IU/ml) were added to the medium after the cells were treated with test article in 96-well plates.
Serial dilutions of the tetracycline derivatives were prepared in DMSO at concentrations 100× to final testing concentration. The COL dilutions in DMSO were then diluted in Hanks' Balanced Salt Solution (HBSS) for application to the cells. The final DMSO concentration was 1% in treated and control cultures. A dose range finding assay is conducted with eight serial dilutions covering a range of 100-0.03 μg/ml in half log steps. Definitive assays are conducted with 6-8 serial dilutions prepared in quarter log steps, centered on the expected 50% toxicity point as determined in the dose range finding assay. One hundred 100 μg/ml was the highest dose recommended to prevent false negative results from UV absorption by the dosing solutions. One dose range finding and at least two definitive trials were performed on each tetracycline derivative and control compound.
Controls: Each assay included both negative (solvent) and positive controls. Twelve wells of negative control cultures were used on each 96-well plate. Chlorpromazine (Sigma Chemicals) was used as the positive control and was prepared and dosed like the test tetracycline derivatives.
Solar Simulator: A Dermalight SOL 3 solar simulator, equipped with a UVA H1 filter (320-400 nm), was adjusted to the appropriate height. Measurement of energy through the lid of a 96-well microtiter plate was carried out using a calibrated UV radiometer UVA sensor. Simulator height was adjusted to deliver 1.7±0.1 mW/cm^2 of UVA energy (resulting dose was 1 J/cm^2 per 10 minutes of exposure).
Phototoxicity Assay: Duplicate plates were prepared for each test material by seeding 10^4 3T3 cells per well in complete medium 24 hours before treatment. Prior to treatment, the medium was removed, and the cells washed once with 125 μl of prewarmed HBSS. Fifty μl of prewarmed HBSS were added to each well. Fifty μl of each test article dilution were added to the appropriate wells and the plates returned to the incubator for approximately one hour. Six wells were treated with each dose of test or control article on each plate. Following the 1 hr incubation, the plates designated for the photo irradiation were exposed (with the lid on) to 1.7±0.1 mW/cm^2 UVA light for 50±2 minutes at room temperature resulting in an irradiation dose of 5 J/cm^2. Duplicate plates, designated for the measurement of cytotoxicity without light, were kept in the dark room temperature for 50±2 minutes. After the 50 minute exposure period (with or without light) the test article dilutions were decanted from the plates and the cells washed once with 125 μl of HBSS. One hundred μl of medium were added to all wells and the cells incubated as above for 24±1 hours.
After 24 hours of incubation, the medium was decanted and 100 μl of the Neutral Red containing medium were added to each well. The plates were returned to the incubator and incubated for approximately 3 hours. After 3 hours, the medium was decanted and each well rinsed once with 250 μl of HBSS. The plates were blotted to remove the HBSS and 100 μl of Neutral Red Solvent were added to each well. After a minimum of 20 minutes of incubation at room temperature (with shaking), the absorbance at 550 nm was measured with a plate reader, using the mean of the blank outer wells as the reference. Relative survival was obtained by comparing the amount of neutral red taken by each well treated with the test article and positive control to the neutral red taken up by the average of the negative wells (12 wells) on the same plate. The amount of neutral red taken up by the negative control wells is considered to be 100% survival.

[2] = based on steady-state pharmacokinetics; cited from earlier work

| Structure (SMILES) | PIF 1 (photoirritancy factor, earlier software) [1] | PIF 2 (photoirritancy factor, OECD Draft Guideline 432) [1] | further results |
| --- | --- | --- | --- |
| CN(C)[C@@H]1C(=O)C(C(N)=O)=C(O)[C@@]2(O)C(=O)C3=C(O)c4c(O)cccc4[C@@](C)(O)[C@H]3C[C@@H]12 [Tetracycline, reference compound] | – | – | MPE (mean photo effect) ([1]; 3T3 cells, 5 J/cm^2 UVA vs dark, <0.1 nonphototoxin, 0.1 to <0.15 probable, >=0.15 clear phototoxin): 0.340; PIF 1 (photoirritancy factor, earlier software) ([1]; IC50(-UVA)/IC50(+UVA), 3T3 cells, >5 indicative of phototoxic potential): 5.38; plasma antibiotic threshold level [2]: 0.5 µg/mL |
| CN(C)CC(=O)Nc1ccc2c(c1O)C(=O)C1=C(O)C3(O)C(=O)C(C(N)=O)=C(O)CC3CC1C2 (stereo not drawn) [COL 309, 9-dimethylaminoacetamido-6-demethyl-6-deoxy-4-dedimethylaminotetracycline] | 5.17 | 12.87 | – |
| CCCCCCCCCCCCCCCC(=O)Nc1ccc2c(c1O)C(=O)C1=C(O)C3(O)C(=O)C(C(N)=O)=C(O)CC3CC1C2 (stereo not drawn) [COL 311, 9-palmitamide-6-demethyl-6-deoxy-4-dedimethylaminotetracycline] | 1.0 | – | – |
| O=C(NCN1CCOCC1)C1=C(O)CC2CC3Cc4cccc(O)c4C(=O)C3=C(O)C2(O)C1=O (stereo not drawn) [COL 314, 2-CONHCH2-morpholin-1-yl-6-demethyl-6-deoxy-4-dedimethylaminotetracycline] | 41.1 | 89.48 | – |
| CC1c2cccc(O)c2C(=O)C2=C(O)C3(O)C(=O)C(C(=O)NCN4CCCC4)=C(O)CC3C(O)C21 (stereo not drawn) [COL 807, 2-CONHCH2-pyrrolidin-1-yl-4-dedimethylaminodoxycycline] | 40.4 | – | – |
| C[C@H]1c2cccc(O)c2C(=O)C2=C(O)[C@]3(O)C(=O)C(C(N)=O)=C(O)[C@@H](N(C)C)[C@@H]3[C@@H](O)[C@@H]21 [Doxycycline, 6α-deoxy-5-hydroxytetracycline, reference compound] | – | – | PIF 1 (photoirritancy factor, earlier software) ([1]; mouse): 23.37; PIF 2 (photoirritancy factor, OECD Draft Guideline 432) ([1]; mouse): 26.71; plasma antibiotic threshold level [2]: 1.0 µg/mL |
| CN(C)c1cc([N+](=O)[O-])c(O)c2c1CC1CC3CC(O)=C(C(N)=O)C(=O)C3(O)C(O)=C1C2=O (stereo not drawn) [COL 1002, 9-nitro-4-dedimethylaminominocycline] | – | 1.35 | – |
| O=C(NCN1CCCCC1)C1=C(O)CC2CC3Cc4cccc(O)c4C(=O)C3=C(O)C2(O)C1=O (stereo not drawn) [COL 313, 2-CONHCH2-piperidin-1-yl-6-demethyl-6-deoxy-4-dedimethylaminotetracycline] | 80.27 | 58.22 | – |
| CC1c2ccc([N+](=O)[O-])c(O)c2C(=O)C2=C(O)C3(O)C(=O)C(C(N)=O)=C(O)CC3C(O)C21 (stereo not drawn) [COL 804, 9-nitro-4-dedimethylaminodoxycycline] | 1.0 | – | – |
| CN(C)c1ccc(O)c2c1C[C@H]1C[C@H]3[C@H](N(C)C)C(O)=C(C(N)=O)C(=O)[C@@]3(O)C(O)=C1C2=O [Minocycline, 7-dimethylaminotetracycline] | – | – | plasma antibiotic threshold level [2]: 0.8 µg/mL |
| NC(=O)C1=C(O)CC2CC3Cc4c(N)ccc(O)c4C(=O)C3=C(O)C2(O)C1=O (stereo not drawn) [COL 307, 7-amino-6-demethyl-6-deoxy-4-dedimethylaminotetracycline] | 1.17 | – | – |
| O=C(NCN1CCNCC1)C1=C(O)CC2CC3Cc4cccc(O)c4C(=O)C3=C(O)C2(O)C1=O (stereo not drawn) [COL 315, 2-CONHCH2-piperazin-1-yl-6-demethyl-6-deoxy-4-dedimethylaminotetracycline] | 15.8 | 35.30 | – |
| CC1c2cccc(O)c2C(=O)C2=C(O)C3(O)C(=O)C(C(=O)NCN4CCCCC4)=C(O)CC3C(O)C21 (stereo not drawn) [COL 808, 2-CONHCH2-piperidin-1-yl-4-dedimethylaminodoxycycline] | 46.45 | – | – |
| CN(C)c1ccc(O)c2c1CC1CC3CC(O)=C(C(N)=O)C(=O)C3(O)C(O)=C1C2=O (stereo not drawn) [COL 10, 4-dedimethylaminominocycline] | – | 2.04 | – |
| NC(=O)C1=C(O)CC2CC3Cc4ccc([N+](=O)[O-])c(O)c4C(=O)C3=C(O)C2(O)C1=O (stereo not drawn) [COL 303, 9-nitro-6-demethyl-6-deoxy-4-dedimethylaminotetracycline] | 5.27 | 13.82 | – |
| CC1c2cccc(O)c2C(=O)C2=C(O)C3(O)C(=O)C(C(N)=O)=C(O)CC3C(O)C21 (stereo not drawn) [COL 8, 4-dedimethylaminodoxycycline] | 165 | 82.61 | – |
| NC(=O)C1=C(O)CC2CC3Cc4c([N+](=O)[O-])ccc(O)c4C(=O)C3=C(O)C2(O)C1=O (stereo not drawn) [COL 302, 7-nitro-6-demethyl-6-deoxy-4-dedimethylaminotetracycline] | 23.16 | 23.32 | – |
| CN(C)c1ccc2c(c1O)C(=O)C1=C(O)C3(O)C(=O)C(C(N)=O)=C(O)CC3CC1C2 (stereo not drawn) [COL 306, 9-dimethylamino-6-demethyl-6-deoxy-4-dedimethylaminotetracycline] | 1.64 | 1.56 | – |
| O=C(NCN1CCCC1)C1=C(O)CC2CC3Cc4cccc(O)c4C(=O)C3=C(O)C2(O)C1=O (stereo not drawn) [COL 312, 2-CONHCH2-pyrrolidin-1-yl-6-demethyl-6-deoxy-4-dedimethylaminotetracycline] | 62.67 | 75.11 | – |
| CN(C)CCCN1c2ccccc2Sc2ccc(Cl)cc21 [Chlorpromazine, reference compound] | – | – | PIF 2 (photoirritancy factor, OECD Draft Guideline 432) ([1]; mouse): 40.38 |
| NC(=O)C1=C(O)C[C@@H]2C[C@@H]3Cc4cccc(O)c4C(=O)C3=C(O)[C@]2(O)C1=O [COL 3, 6-demethyl-6-deoxy-4-dedimethylaminotetracycline] | 647 | 84.72 | – |
| CC(=O)Nc1ccc2c(c1O)C(=O)C1=C(O)C3(O)C(=O)C(C(N)=O)=C(O)CC3C(O)C1C2C (stereo not drawn) [COL 801, 9-acetamido-4-dedimethylaminodoxycycline] | 1.0 | – | – |
| NC(=O)C1=C(O)CC2CC3Cc4ccc(N)c(O)c4C(=O)C3=C(O)C2(O)C1=O (stereo not drawn) [COL 308, 9-amino-6-demethyl-6-deoxy-4-dedimethylaminotetracycline] | 1.0 | – | – |
| CC1c2ccc(N)c(O)c2C(=O)C2=C(O)C3(O)C(=O)C(C(N)=O)=C(O)CC3C(O)C21 (stereo not drawn) [COL 805, 9-amino-4-dedimethylaminodoxycycline] | 1.0 | – | – |
| CC1c2ccc(NC(=O)CN(C)C)c(O)c2C(=O)C2=C(O)C3(O)C(=O)C(C(N)=O)=C(O)CC3C(O)C21 (stereo not drawn) [COL 802, 9-dimethylaminoacetamido-4-dedimethylaminodoxycycline] | 1.0 | – | – |
